In ChEMBL document CHEMBL3526122, “Identification of UDP-glucuronosyltransferases responsible for the glucuronidation of darexaban, an oral factor Xa inhibitor, in human liver and intestine” (Drug Metab Dispos, 2012):

Experiments:
[1] = Drug metabolism in human liver microsomes assessed as glucuronidation after 10 mins by Michaelis-Menten plot analysis in presence of UDPGA and absence of fatty acid free BSA; assay type: ADME; details: read-out: Km(unbound)
[2] = Fraction unbound in human liver microsomes at 1 to 250 uM after 10 mins by ultrafiltration method in absence of fatty acid free BSA; assay type: ADME
Liver microsome [3] = experiment: Unbound intrinsic clearance in human liver microsomes assessed per mg of protein after 10 mins in presence of UDPGA and 0.1% fatty acid free BSA; assay type: ADME
[4] = target: T1, UDP-glucuronosyltransferase 1A10 (Homo sapiens, UniProt Q9HAW8); experiment: Ratio of Ki to Km for human recombinant UGT1A10 expressed in baculovirus-infected insect cells; assay type: ADME; details: recombinant enzyme
T1 sequence (Q9HAW8 whole entry): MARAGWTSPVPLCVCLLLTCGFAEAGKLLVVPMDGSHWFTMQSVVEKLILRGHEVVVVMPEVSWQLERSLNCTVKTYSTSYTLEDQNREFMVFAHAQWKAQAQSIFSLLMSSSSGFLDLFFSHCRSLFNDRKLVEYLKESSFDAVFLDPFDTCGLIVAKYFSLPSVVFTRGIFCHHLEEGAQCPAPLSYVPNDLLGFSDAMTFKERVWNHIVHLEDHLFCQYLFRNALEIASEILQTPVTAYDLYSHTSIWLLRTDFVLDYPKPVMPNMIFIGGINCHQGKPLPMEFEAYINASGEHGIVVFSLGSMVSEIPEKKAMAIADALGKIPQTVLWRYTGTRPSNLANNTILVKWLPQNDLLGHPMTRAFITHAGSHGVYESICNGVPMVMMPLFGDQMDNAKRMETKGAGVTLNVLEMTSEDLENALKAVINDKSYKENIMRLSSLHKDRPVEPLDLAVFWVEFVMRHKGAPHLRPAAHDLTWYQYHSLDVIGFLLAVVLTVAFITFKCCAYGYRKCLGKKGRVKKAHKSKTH

Liver microsome [5] = experiment: Unbound intrinsic clearance in human liver microsomes assessed per mg of protein after 10 mins in presence of UDPGA and absence of fatty acid free BSA; assay type: ADME
[6] = target: T2, UDP-glucuronosyltransferase 1A9 (Homo sapiens, UniProt O60656); experiment: Activity of human recombinant UGT1A9 expressed in baculovirus-infected insect cells assessed as unbound intrinsic clearance for enzyme-mediated glucuronidation per mg of protein after 5 mins by Michaelis-Menten plot analysis in presence of UDPGA and 2% fatty acid free BSA; assay type: ADME
T2 sequence (O60656 whole entry): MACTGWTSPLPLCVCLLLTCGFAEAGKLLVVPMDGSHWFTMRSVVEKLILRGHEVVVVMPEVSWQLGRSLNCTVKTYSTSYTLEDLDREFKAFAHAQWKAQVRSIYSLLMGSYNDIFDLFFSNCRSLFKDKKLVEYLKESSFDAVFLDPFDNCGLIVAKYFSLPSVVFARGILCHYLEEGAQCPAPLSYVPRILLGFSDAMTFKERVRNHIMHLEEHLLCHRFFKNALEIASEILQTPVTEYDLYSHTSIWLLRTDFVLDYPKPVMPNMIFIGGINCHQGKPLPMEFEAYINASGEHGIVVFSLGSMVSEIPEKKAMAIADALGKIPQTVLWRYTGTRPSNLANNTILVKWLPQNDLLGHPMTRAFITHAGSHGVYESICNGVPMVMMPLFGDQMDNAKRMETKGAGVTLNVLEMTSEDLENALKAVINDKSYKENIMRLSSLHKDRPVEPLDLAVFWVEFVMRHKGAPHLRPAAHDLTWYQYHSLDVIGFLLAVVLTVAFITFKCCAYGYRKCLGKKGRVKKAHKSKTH

[7] = Drug metabolism in human intestinal microsomes assessed as glucuronidation per mg of protein after 5 mins by Michaelis-Menten plot analysis in presence of UDPGA; assay type: ADME, Intestine, Microsome
[8] = Ratio of Km for drug metabolism in human liver microsomes to Km for human recombinant UGT-mediated drug metabolism; assay type: ADME; details: recombinant enzyme
[9] = Fraction unbound incubation mixture containing human recombinant UGT1A9 at 1 to 250 uM after 10 mins by ultrafiltration method in presence of 2% fatty acid free BSA
[10] = target: T2, UDP-glucuronosyltransferase 1A9; experiment: Activity of recombinant human UGT1A9 expressed in baculovirus-infected insect cells assessed as enzyme-mediated glucuronidation per mg of protein after 5 mins in presence of UDPGA; assay type: ADME
[11] = target: T1, UDP-glucuronosyltransferase 1A10; experiment: Activity of recombinant human UGT1A10 expressed in baculovirus-infected insect cells assessed as enzyme-mediated glucuronidation per mg of protein after 10 mins in presence of UDPGA; assay type: ADME
[12] = Drug metabolism in human liver microsomes assessed as glucuronidation after 10 mins by Michaelis-Menten plot analysis in presence of UDPGA and 0.5% fatty acid free BSA; assay type: ADME; details: read-out: Km(unbound)
Liver microsome [13] = experiment: Drug metabolism in human liver microsomes assessed as glucuronidation per mg of protein after 10 mins by Michaelis-Menten plot analysis in presence of UDPGA and 0.1% fatty acid free BSA; assay type: ADME

Km at 10 min [1]: 216 µM | fraction unbound at 10 min, up to 250 µM [2]: 0.873 | CL free (Liver microsome [3]): 184 µL/min/mg | Ratio [4]: 6.9 | CL free (Liver microsome [5]): 17.4 µL/min/mg | CL free [6]: 316 µL/min/mg | Vmax [7]: 4.53 nmol/min/mg | Ratio [8]: 4.2 | Drug metabolism [10]: 2.43 nmol/min/mg | Drug metabolism [11]: 0.516 nmol/min/mg | Km at 10 min [12]: 17.7 µM | Vmax (Liver microsome [13]): 3.25 nmol/min/mg
Structure (SMILES): COc1ccc(C(=O)Nc2cccc(O)c2NC(=O)c2ccc(N3CCCN(C)CC3)cc2)cc1.O=C(O)CCC(=O)O
Fu [9]: 0.237
